Results from US12227500B2, “Substituted pyrrolo[2,3-b]pyridines for suppressing toxic endoplasmic reticulum stress” (THE TRUSTEES OF COLUMBIA UNIVERSITY IN THE CITY OF NEW YORK, priority 2018, dated 2025).
Read-outs that look alike come from different tables or passages of the source.

Tests used:
Assay type in all cases: biochemical
[1] = target: T1, panel of 60 human kinases (Homo sapiens, UniProt Q13164); experiment: Radiolabeled ATP kinase assay, panel of 60 kinases (Table S5); conditions: 0.1 μM, 10 μM ATP, read-out: % Enzyme Activity (relative to DSMO controls)
T1 construct: purchased Reaction Biology Corp
Summary of the method: (§1)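 Compounds at two concentrations, 0.1 μM and 0.5 μM, were screened for inhibition of 60 kinases in cell-free assays read out by radiolabeled ATP.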

[2] = target: T2, panel of 60 human kinases (Homo sapiens, UniProt Q9H2K8); experiment: as above; conditions: TAOK3/JIK; 0.1 μM; 10 μM ATP; read-out: % Enzyme Activity (relative to DSMO controls)
T2 construct: purchased Reaction Biology Corp
T2 sequence (Q9H2K8 1-898): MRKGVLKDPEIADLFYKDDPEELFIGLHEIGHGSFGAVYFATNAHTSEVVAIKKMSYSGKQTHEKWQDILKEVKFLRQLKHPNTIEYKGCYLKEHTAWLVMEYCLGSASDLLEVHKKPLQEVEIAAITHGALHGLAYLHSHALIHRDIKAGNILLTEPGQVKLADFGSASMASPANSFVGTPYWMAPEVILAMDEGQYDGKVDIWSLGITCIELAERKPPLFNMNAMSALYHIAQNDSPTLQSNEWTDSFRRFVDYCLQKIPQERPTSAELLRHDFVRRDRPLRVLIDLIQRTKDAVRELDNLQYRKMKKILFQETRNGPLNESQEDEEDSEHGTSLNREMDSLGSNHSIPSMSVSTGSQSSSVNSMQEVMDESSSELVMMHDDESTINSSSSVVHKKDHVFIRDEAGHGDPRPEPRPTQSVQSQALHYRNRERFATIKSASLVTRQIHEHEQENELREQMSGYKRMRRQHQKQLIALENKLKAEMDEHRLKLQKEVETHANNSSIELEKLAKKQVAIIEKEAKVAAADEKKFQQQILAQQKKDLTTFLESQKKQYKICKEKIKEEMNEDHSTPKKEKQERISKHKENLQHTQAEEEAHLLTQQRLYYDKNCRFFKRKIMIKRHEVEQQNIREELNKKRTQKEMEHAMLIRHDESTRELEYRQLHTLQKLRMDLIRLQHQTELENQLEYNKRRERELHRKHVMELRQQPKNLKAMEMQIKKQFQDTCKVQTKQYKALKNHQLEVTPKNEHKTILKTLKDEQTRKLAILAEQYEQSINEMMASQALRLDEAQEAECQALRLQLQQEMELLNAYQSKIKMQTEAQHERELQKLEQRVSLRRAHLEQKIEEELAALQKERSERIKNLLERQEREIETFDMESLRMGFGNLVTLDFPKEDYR
Summary of the method: as §1

[3] = target: T3, panel of 60 human kinases (Homo sapiens, UniProt P49759); experiment: as above; conditions: CLK1; 0.1 μM; 10 μM ATP; read-out: % Enzyme Activity (relative to DSMO controls)
T3 construct: purchased Reaction Biology Corp
Summary of the method: as §1

[4] = target: T4, panel of 60 human kinases (Homo sapiens, UniProt Q00534); experiment: as above; conditions: 0.1 μM, 10 μM ATP, read-out: % Enzyme Activity (relative to DSMO controls)
T4 construct: purchased Reaction Biology Corp
Summary of the method: as §1

[5] = target: T5, panel of 60 human kinases (Homo sapiens, UniProt Q15139); experiment: as above; conditions: PKCmu/PRKD1; 0.1 μM; 10 μM ATP; read-out: % Enzyme Activity (relative to DSMO controls)
T5 construct: purchased Reaction Biology Corp
T5 sequence (Q15139 1-912): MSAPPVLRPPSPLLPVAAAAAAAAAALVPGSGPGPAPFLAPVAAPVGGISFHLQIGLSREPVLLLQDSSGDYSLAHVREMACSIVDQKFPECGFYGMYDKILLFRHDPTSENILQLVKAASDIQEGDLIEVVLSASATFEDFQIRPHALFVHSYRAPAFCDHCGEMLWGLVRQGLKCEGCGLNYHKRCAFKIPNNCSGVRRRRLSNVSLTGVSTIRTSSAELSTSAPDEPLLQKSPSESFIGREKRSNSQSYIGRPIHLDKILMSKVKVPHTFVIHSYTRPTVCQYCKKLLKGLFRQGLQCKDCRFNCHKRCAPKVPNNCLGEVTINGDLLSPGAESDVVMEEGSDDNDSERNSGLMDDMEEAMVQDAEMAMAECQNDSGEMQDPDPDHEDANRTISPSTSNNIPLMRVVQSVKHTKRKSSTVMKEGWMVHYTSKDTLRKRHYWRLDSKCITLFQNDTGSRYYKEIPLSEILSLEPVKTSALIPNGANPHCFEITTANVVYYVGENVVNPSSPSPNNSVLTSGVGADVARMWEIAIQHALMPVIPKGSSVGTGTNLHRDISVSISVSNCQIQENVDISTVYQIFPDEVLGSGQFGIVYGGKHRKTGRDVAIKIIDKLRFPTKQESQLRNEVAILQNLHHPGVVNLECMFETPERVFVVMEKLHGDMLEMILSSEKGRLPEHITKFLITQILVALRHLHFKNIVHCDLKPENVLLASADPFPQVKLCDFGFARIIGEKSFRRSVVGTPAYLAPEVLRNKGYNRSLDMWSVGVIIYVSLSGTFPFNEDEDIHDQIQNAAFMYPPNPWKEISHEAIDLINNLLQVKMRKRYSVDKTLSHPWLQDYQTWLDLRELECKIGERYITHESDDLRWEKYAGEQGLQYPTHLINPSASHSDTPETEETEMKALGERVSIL
Summary of the method: as §1

[6] = target: T6, panel of 60 human kinases (Homo sapiens, UniProt P08581); experiment: as above; conditions: c-MET; 0.1 μM; 10 μM ATP; read-out: % Enzyme Activity (relative to DSMO controls)
T6 construct: purchased Reaction Biology Corp
Summary of the method: as §1

MLK1/MAP3K9 = target: T7, MLK1/MAP3K9 (Homo sapiens, UniProt P80192); experiment: Radiolabeled ATP kinase assay (Reaction Biology Corp.), MLK1; conditions: [Cmpd] 0.1 μM, 10 μM ATP
T7 construct: purchased Reaction Biology Corp
Experimental: (§2) Meanwhile, the same analogs were analyzed in a radiolabeled ATP assay (10 μM ATP; Reaction Biology Corp.) to compare the extent to which they could inhibit the activity of HGK, MLK1, or MLK3 in a cell-free environment (Table S3 and S4).

HGK/MAP4K4 = HGK/MAP4K4 (Homo sapiens, UniProt O95819); experiment: Radiolabeled ATP kinase assay (Reaction Biology Corp.), HGK; design: purchased Reaction Biology Corp; conditions: 10 μM ATP, read-out: % Enzyme Activity (relative to DMSO controls), HGK/MAP4K4, Data 1; for remaining activity at 0.025 µM: [Cmpd] 0.025 μM; for remaining activity at 0.1 µM: [Cmpd] 0.1 μM
Experimental: as §2

[7] = read-out: % Enzyme Activity Remaining (relative to DMSO controls), MLK1/MAP3K9, Data 1
[8] = read-out: % Enzyme Activity Remaining (relative to DMSO controls), MLK1/MAP3K9, Data 2

T3 sequence (P49759 whole entry): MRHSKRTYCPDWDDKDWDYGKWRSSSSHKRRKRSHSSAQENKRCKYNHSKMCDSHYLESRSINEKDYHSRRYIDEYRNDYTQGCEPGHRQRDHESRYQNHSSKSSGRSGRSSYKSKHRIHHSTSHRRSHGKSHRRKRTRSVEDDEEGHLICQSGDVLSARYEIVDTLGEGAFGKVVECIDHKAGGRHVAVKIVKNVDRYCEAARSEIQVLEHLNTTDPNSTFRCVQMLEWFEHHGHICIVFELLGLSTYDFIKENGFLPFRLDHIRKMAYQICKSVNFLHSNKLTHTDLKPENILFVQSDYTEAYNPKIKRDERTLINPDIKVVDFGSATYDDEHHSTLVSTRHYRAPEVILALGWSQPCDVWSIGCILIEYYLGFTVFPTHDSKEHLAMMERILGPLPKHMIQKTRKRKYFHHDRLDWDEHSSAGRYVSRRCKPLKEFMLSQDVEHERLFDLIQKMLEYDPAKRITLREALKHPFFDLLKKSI
T1 sequence (Q13164 whole entry): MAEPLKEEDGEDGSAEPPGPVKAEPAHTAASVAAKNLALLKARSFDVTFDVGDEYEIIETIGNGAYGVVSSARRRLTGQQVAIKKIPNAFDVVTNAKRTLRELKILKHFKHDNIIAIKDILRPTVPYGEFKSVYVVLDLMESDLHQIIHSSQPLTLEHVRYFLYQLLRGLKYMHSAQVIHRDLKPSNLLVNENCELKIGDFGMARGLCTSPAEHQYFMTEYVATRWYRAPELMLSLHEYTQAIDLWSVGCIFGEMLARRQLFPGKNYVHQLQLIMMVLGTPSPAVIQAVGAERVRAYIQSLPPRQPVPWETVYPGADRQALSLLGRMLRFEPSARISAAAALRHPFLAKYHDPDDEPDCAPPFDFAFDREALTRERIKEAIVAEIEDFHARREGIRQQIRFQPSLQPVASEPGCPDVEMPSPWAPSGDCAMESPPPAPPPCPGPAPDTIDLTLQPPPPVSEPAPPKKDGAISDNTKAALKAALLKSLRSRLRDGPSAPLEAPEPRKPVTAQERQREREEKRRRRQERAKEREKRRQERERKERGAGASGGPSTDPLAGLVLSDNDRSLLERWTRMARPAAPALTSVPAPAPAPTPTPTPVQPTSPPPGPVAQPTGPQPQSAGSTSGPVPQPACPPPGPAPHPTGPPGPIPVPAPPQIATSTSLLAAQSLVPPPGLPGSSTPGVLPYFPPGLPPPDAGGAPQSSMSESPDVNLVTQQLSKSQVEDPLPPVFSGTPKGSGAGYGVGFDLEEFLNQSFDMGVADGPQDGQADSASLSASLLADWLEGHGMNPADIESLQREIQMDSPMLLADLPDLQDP
T7 sequence (P80192 whole entry): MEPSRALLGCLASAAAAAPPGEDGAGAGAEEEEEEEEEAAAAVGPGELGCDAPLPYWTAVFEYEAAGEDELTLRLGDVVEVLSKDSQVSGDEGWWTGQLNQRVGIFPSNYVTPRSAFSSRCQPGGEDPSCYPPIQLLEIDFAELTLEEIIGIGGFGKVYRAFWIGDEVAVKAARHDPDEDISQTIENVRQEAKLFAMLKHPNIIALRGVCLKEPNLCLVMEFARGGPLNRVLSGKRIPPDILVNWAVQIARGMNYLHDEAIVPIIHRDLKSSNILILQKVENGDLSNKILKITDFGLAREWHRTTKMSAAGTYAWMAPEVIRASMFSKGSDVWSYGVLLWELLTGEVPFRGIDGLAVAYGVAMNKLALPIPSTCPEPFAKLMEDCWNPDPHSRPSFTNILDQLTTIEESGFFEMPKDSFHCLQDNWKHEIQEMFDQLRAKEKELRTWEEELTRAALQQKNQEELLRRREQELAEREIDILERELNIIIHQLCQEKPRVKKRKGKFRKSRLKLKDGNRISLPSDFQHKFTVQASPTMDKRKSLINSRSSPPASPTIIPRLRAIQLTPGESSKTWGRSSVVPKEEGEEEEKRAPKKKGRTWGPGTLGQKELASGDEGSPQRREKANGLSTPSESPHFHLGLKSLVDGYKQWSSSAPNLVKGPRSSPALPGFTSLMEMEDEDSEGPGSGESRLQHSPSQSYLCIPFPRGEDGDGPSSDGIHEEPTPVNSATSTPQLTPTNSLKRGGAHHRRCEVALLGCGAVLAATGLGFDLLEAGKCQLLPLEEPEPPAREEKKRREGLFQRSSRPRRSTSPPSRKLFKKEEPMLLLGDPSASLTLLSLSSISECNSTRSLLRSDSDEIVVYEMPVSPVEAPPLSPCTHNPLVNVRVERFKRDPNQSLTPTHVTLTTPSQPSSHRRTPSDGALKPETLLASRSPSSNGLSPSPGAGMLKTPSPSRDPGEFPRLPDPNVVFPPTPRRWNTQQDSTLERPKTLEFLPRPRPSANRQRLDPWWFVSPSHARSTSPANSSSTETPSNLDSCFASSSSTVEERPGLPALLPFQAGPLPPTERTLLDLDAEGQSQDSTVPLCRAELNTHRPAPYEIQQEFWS
T4 sequence (Q00534 whole entry): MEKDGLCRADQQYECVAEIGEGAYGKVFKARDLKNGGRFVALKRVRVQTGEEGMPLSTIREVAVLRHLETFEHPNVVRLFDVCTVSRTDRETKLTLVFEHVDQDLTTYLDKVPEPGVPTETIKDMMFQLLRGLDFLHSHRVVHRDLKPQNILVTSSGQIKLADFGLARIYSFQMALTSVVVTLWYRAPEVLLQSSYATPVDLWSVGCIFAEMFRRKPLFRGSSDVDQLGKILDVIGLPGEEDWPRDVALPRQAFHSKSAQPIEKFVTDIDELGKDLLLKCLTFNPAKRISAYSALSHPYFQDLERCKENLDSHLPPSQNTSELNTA
T6 sequence (P08581 25-1390): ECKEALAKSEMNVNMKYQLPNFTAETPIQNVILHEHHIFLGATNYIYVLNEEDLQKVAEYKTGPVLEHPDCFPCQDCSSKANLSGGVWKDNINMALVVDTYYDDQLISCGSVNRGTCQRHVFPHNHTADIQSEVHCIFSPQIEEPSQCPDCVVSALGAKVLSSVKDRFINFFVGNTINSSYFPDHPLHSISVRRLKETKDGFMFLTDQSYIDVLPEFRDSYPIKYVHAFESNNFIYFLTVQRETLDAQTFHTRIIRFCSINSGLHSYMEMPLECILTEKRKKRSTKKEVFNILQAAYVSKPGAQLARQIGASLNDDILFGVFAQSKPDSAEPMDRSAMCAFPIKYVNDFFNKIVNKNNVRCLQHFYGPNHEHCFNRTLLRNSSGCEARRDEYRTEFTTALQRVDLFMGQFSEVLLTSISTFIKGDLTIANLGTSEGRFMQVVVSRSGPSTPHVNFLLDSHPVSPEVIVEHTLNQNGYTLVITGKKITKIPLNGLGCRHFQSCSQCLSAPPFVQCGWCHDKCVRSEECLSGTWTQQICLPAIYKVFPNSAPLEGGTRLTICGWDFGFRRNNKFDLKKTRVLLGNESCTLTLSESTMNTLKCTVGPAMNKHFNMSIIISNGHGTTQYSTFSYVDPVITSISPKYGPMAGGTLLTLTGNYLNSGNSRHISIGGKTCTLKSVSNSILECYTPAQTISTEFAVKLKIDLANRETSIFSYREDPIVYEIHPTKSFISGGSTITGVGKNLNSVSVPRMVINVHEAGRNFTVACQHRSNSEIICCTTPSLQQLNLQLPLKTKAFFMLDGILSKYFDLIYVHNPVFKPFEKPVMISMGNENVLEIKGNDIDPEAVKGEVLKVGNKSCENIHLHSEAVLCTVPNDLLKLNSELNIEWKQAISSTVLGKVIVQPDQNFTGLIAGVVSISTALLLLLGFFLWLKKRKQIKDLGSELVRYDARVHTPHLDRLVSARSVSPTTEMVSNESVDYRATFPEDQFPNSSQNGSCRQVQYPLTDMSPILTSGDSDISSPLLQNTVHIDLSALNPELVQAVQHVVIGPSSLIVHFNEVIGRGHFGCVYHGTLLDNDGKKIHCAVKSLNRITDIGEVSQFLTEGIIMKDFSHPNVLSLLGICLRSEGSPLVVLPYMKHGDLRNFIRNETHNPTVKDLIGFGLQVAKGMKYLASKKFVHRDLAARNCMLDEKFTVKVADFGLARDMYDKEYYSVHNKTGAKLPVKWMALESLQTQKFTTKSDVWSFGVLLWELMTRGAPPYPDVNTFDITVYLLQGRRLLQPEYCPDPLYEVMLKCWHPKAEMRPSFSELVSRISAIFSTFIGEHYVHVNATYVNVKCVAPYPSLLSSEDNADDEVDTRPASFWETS

SMILES | remaining activity at 0.1 µM ([1]; ERK5/MAPK7 (CD)) | remaining activity at 0.1 µM ([1]; ERK5/MAPK7) | remaining activity at 0.1 µM [2] | remaining activity at 0.1 µM [3] | remaining activity at 0.1 µM ([4]; CDK6/cyclin D1) | remaining activity at 0.1 µM ([4]; CDK6/cyclin D3) | remaining activity at 0.1 µM [5] | remaining activity at 0.1 µM [6] | remaining activity at 0.1 µM (MLK1/MAP3K9; [7]) | remaining activity at 0.1 µM (MLK1/MAP3K9; [8]) | remaining activity at 0.025 µM (HGK/MAP4K4) | remaining activity at 0.1 µM (HGK/MAP4K4)
CN1CCN(Cc2ccc(-c3cnc4[nH]cc(-c5ccccc5Cl)c4c3)cc2)CC1 [Compound 7as, 3-(2-Chlorophenyl)-5-(4-((4-methylpiperazin-1-yl)methyl)phenyl)-1H-pyrrolo[2,3-b]pyridine] | 51.2% | 107% | 69.8% | 44.6% | 15.6% | 36.1% | 9.63% | 84.1% | 72.7% | 73.3% | 17.6% | 3.61%
COc1ccccc1-c1c[nH]c2ncc(-c3ccc(CN4CCN(C)CC4)cc3)cc12 [Compound 7at, 3-(2-Methoxyphenyl)-5-(4-((4-methylpiperazin-1-yl)methyl)phenyl)-1H-pyrrolo[2,3-b]pyridine] | 92.7% | 108% | 65.5% | 78.4% | 7.23% | 46% | 38.7% | 86.8% | 31.3% | 30.6% | 29.3% | 4.83%
CN1CCN(Cc2ccc(-c3cnc4[nH]cc(-c5ccc6c(c5)OCCO6)c4c3)cc2)CC1 [Compound 7d, 3-(2,3-Dihydrobenzo[b][1,4]dioxin-6-yl)-5-(4-((4-methylpiperazin-1-yl)methyl)phenyl)-1H-pyrrolo[2,3-b]pyridine] | 87.5% | 96.8% | 67.9% | 1.66% | 15.1% | 52.3% | 4.34% | 110% | 25.6% | 23.6% | 19.6% | 4.25%
CN1CCN(Cc2ccc(-c3cnc4[nH]cc(-c5ccncc5)c4c3)cc2)CC1 [Compound 7n, 5-(4-((4-Methylpiperazin-1-yl)methyl)phenyl)-3-(pyridin-4-yl)-1H-pyrrolo[2,3-b]pyridine] | 98.9% | 90.6% | 94.9% | 34.9% | 23.4% | 51.8% | 31.5% | 102% | 88.9% | 88.7% | 65.7% | 29.9%
